According to PubChem BioAssay AID1963980 (Molecular Pharmacology Branch, DTP, NCI, 2024):

Tested on: 475296-252-R-J1-PDC spheroid viability
Assay: Anticancer human tumor 475296-252-R-J1-PDC patient-derived rectal carcinoma cell line growth inhibition [PI3K]
Conditions: spheroids with HUVEC and MSC; for viability, T/C: stronger effect = lower value
Method in brief: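 Complex 3D spheroids (cancer cells + endothelial HUVEC + mesenchymal stem cells); drug pairs of targeted agent x inavolisib/alpelisib/duvelisib/copanlisib; half-log series from ~Cmax, max 10 microM if Cmax unknown; endpoint viability.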

[1] = curve of first compound, second compound 0.00316 µM
[2] = curve of first compound, second compound 0.01 µM
[3] = curve of first compound, second compound 0.0316 µM
[4] = curve of first compound, second compound 0.1 µM
[5] = curve of first compound, second compound 0.316 µM
[6] = curve of first compound, second compound 1 µM
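Also: spheroids exposed to agents for seven days before readout.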

In the case of `Cn1cnc2c(F)c(Nc3ccc(Br)cc3Cl)c(C(=O)NOCCO)cc21` + COc1c(OCCCN2CCOCC2)ccc2c3n(c(=NC(=O)c4cnc(N)nc4)nc12)CCN3, the IC50 [1] is reported as 2050 nM, the IC50 [2] is reported as 469 nM and the IC50 [3] is reported as 162 nM. For the same compound, the IC50 [4] was 94.2 nM, the IC50 [5] was 27.1 nM and the IC50 [6] was under 9.49 nM. It also gave a viability, T/C (second compound 0.00316 µM, first compound 0.00949 µM) of 88%, a viability, T/C (second compound 0.00316 µM, first compound 0.03 µM) of 75.5% and a viability, T/C (second compound 0.00316 µM, first compound 0.0949 µM) of 73.4%. It also gave a viability, T/C (second compound 0.00316 µM, first compound 0.3 µM) of 60.6%, a viability, T/C (second compound 0.00316 µM, first compound 0.949 µM) of 62.5% and a viability, T/C (second compound 0.00316 µM, first compound 3 µM) of 44.2%. It also gave a viability, T/C (second compound 0.01 µM, first compound 0.00949 µM) of 90.6%, a viability, T/C (second compound 0.01 µM, first compound 0.03 µM) of 90% and a viability, T/C (second compound 0.01 µM, first compound 0.0949 µM) of 63%. It also gave a viability, T/C (second compound 0.01 µM, first compound 0.3 µM) of 53.3%, a viability, T/C (second compound 0.01 µM, first compound 0.949 µM) of 53.8% and a viability, T/C (second compound 0.01 µM, first compound 3 µM) of 36.9%. For the same compound, the viability, T/C (second compound 0.0316 µM, first compound 0.00949 µM) was 84.1%, the viability, T/C (second compound 0.0316 µM, first compound 0.03 µM) was 63.3% and the viability, T/C (second compound 0.0316 µM, first compound 0.0949 µM) was 56.3%. The viability, T/C (second compound 0.0316 µM, first compound 0.3 µM) was 42.6%, the viability, T/C (second compound 0.0316 µM, first compound 0.949 µM) was 37% and the viability, T/C (second compound 0.0316 µM, first compound 3 µM) was 18.8%. It also gave a viability, T/C (second compound 0.1 µM, first compound 0.00949 µM) of 65%, a viability, T/C (second compound 0.1 µM, first compound 0.03 µM) of 67.6% and a viability, T/C (second compound 0.1 µM, first compound 0.0949 µM) of 48.7%. The viability, T/C (second compound 0.1 µM, first compound 0.3 µM) was 25.6%, the viability, T/C (second compound 0.1 µM, first compound 0.949 µM) was 16.5% and the viability, T/C (second compound 0.1 µM, first compound 3 µM) was 6.68%. The viability, T/C (second compound 0.316 µM, first compound 0.00949 µM) was 55.9%, the viability, T/C (second compound 0.316 µM, first compound 0.03 µM) was 49.8% and the viability, T/C (second compound 0.316 µM, first compound 0.0949 µM) was 29.4%. It also gave a viability, T/C (second compound 0.316 µM, first compound 0.3 µM) of 10.7%, a viability, T/C (second compound 0.316 µM, first compound 0.949 µM) of 5.48% and a viability, T/C (second compound 0.316 µM, first compound 3 µM) of 2.56%. For the same compound, the viability, T/C (second compound 1 µM, first compound 0.00949 µM) was 47.1%, the viability, T/C (second compound 1 µM, first compound 0.03 µM) was 41.5% and the viability, T/C (second compound 1 µM, first compound 0.0949 µM) was 22.2%. The viability, T/C (second compound 1 µM, first compound 0.3 µM) was 9.1%, the viability, T/C (second compound 1 µM, first compound 0.949 µM) was 5.23% and the viability, T/C (second compound 1 µM, first compound 3 µM) was 3.35%.
In the case of `C#Cc1c(F)ccc2cc(O)cc(-c3ncc4c(N5CC6CCC(C5)N6)nc(OCC56CCCN5CC(F)C6)nc4c3F)c12` (stereo unspecified) + CC(Nc1ccc2c(c1)OCCn1cc(N3C(=O)OCC3C(F)F)nc1-2)C(N)=O, the IC50 [1] is reported as over 10000 nM, the IC50 [2] is reported as over 10000 nM and the IC50 [3] is reported as over 10000 nM. The IC50 [4] was 9510 nM, the IC50 [5] was 1750 nM and the IC50 [6] was 828 nM. The viability, T/C (second compound 0.00316 µM, first compound 0.0316 µM) was 104%, the viability, T/C (second compound 0.00316 µM, first compound 0.1 µM) was 78.2% and the viability, T/C (second compound 0.00316 µM, first compound 0.316 µM) was 87.1%. It also gave a viability, T/C (second compound 0.00316 µM, first compound 1 µM) of 74.6%, a viability, T/C (second compound 0.00316 µM, first compound 3.16 µM) of 67.5% and a viability, T/C (second compound 0.00316 µM, first compound 10 µM) of 67%. The viability, T/C (second compound 0.01 µM, first compound 0.0316 µM) was 98.6%, the viability, T/C (second compound 0.01 µM, first compound 0.1 µM) was 83% and the viability, T/C (second compound 0.01 µM, first compound 0.316 µM) was 85.3%. It also gave a viability, T/C (second compound 0.01 µM, first compound 1 µM) of 73.1%, a viability, T/C (second compound 0.01 µM, first compound 3.16 µM) of 75.1% and a viability, T/C (second compound 0.01 µM, first compound 10 µM) of 59.1%. The viability, T/C (second compound 0.0316 µM, first compound 0.0316 µM) was 94.2%, the viability, T/C (second compound 0.0316 µM, first compound 0.1 µM) was 87.2% and the viability, T/C (second compound 0.0316 µM, first compound 0.316 µM) was 77.6%. For the same compound, the viability, T/C (second compound 0.0316 µM, first compound 1 µM) was 73.8%, the viability, T/C (second compound 0.0316 µM, first compound 3.16 µM) was 73.3% and the viability, T/C (second compound 0.0316 µM, first compound 10 µM) was 59.2%. It also gave a viability, T/C (second compound 0.1 µM, first compound 0.0316 µM) of 89%, a viability, T/C (second compound 0.1 µM, first compound 0.1 µM) of 94.6% and a viability, T/C (second compound 0.1 µM, first compound 0.316 µM) of 74.3%. It also gave a viability, T/C (second compound 0.1 µM, first compound 1 µM) of 72.1%, a viability, T/C (second compound 0.1 µM, first compound 3.16 µM) of 61.1% and a viability, T/C (second compound 0.1 µM, first compound 10 µM) of 49%. The viability, T/C (second compound 0.316 µM, first compound 0.0316 µM) was 78.2%, the viability, T/C (second compound 0.316 µM, first compound 0.1 µM) was 87.7% and the viability, T/C (second compound 0.316 µM, first compound 0.316 µM) was 86.6%. For the same compound, the viability, T/C (second compound 0.316 µM, first compound 1 µM) was 61.3%, the viability, T/C (second compound 0.316 µM, first compound 3.16 µM) was 36.5% and the viability, T/C (second compound 0.316 µM, first compound 10 µM) was 18.1%. For the same compound, the viability, T/C (second compound 1 µM, first compound 0.0316 µM) was 92.1%, the viability, T/C (second compound 1 µM, first compound 0.1 µM) was 75.1% and the viability, T/C (second compound 1 µM, first compound 0.316 µM) was 67.4%. For the same compound, the viability, T/C (second compound 1 µM, first compound 1 µM) was 52.8%, the viability, T/C (second compound 1 µM, first compound 3.16 µM) was 16.9% and the viability, T/C (second compound 1 µM, first compound 10 µM) was 9.3%.
In the case of `CC(=O)c1c(C)c2cnc(Nc3ccc(N4CCNCC4)cn3)nc2n(C2CCCC2)c1=O`, the viability, T/C (compound 0.000316 µM) is reported as 106% [middle of 4 runs], the viability, T/C (compound 0.001 µM) is reported as 98.3% [middle of 4 runs] and the viability, T/C (compound 0.00316 µM) is reported as 98% [middle of 4 runs]. The viability, T/C (compound 0.01 µM) was 98.9% [middle of 4 runs], the viability, T/C (compound 0.0316 µM) was 108% [middle of 4 runs] and the viability, T/C (compound 0.1 µM) was 108% [middle of 4 runs]. It also gave an IC50 (curve of compound) of over 100 nM.
